Data from US4857521A, “Trialkylsilyl pyridinium cephalosporin antibiotics” (Sanwa Kagaku Kenkyusho Co., Ltd., priority 1986, dated 1989).
Structures can show the parent of a compound that is named as a salt.

What was measured:
Type in all cases: cell-based
E. coli NIH = test: MIC by agar plate dilution method, E. coli NIH; conditions: seeding 10^6 cells/ml; for MIC: Escherichia coli, read-out: minimum inhibitory concentration (MIC)
Method: (§1) Each series of dilution was prepared with use of testing compounds prepared by the Examples and control compound of Gentamicin as well as a liquid medium. The minimum inhibitory concentration (MIC in μg/ml) to each pathogen (seeding amount: 10^6 cells/ml) was determined, in accordance with the standard method (agar plate dilution method) by the Chemotherapy Society of Japan.

E. coli K-12 = test: MIC by agar plate dilution method, E. coli K-12; conditions: for MIC: Escherichia coli, K12, seeding 10^6 cells/ml, read-out: minimum inhibitory concentration (MIC)
Method: as §1

C. fleundii NIH 10018-68 = test: MIC by agar plate dilution method, C. fleundii NIH 10018-68; conditions: for MIC: read-out: minimum inhibitory concentration (MIC)
Method: as §1

K. pneumoniae NCTC 9632 = test: MIC by agar plate dilution method, K. pneumoniae NCTC 9632; conditions: for MIC: Klebsiella pneumoniae, NCTC9632, seeding 10^6 cells/ml, read-out: minimum inhibitory concentration (MIC)
Method: as §1

S. typhi T-287 = test: MIC by agar plate dilution method, S. typhi T-287; conditions: seeding 10^6 cells/ml; for MIC: Salmonella enterica, read-out: minimum inhibitory concentration (MIC)
Method: as §1

P. vulgaris OX-19 = test: MIC by agar plate dilution method, P. vulgaris OX-19; conditions: for MIC: Proteus vulgaris, OX19, seeding 10^6 cells/ml, read-out: minimum inhibitory concentration (MIC)
Method: as §1

P. rettgeri NIH 96 = test: MIC by agar plate dilution method, P. rettgeri NIH 96; conditions: for MIC: Providencia rettgeri, NIH96, seeding 10^6 cells/ml, read-out: minimum inhibitory concentration (MIC)
Method: as §1

P. aeruginosa Nc-5 = test: MIC by agar plate dilution method, P. aeruginosa Nc-5; conditions: for MIC: Pseudomonas aeruginosa, NC5, seeding 10^6 cells/ml, read-out: minimum inhibitory concentration (MIC)
Method: as §1

S. flexneri 2a EW-10 = test: MIC by agar plate dilution method, S. flexneri 2a EW-10; conditions: Shigella flexneri, 2AEW10, seeding 10^6 cells/ml, read-out: minimum inhibitory concentration (MIC)
Method: as §1

Molecule | minimum inhibitory concentration (MIC) (E. coli NIH) [µg/mL] | minimum inhibitory concentration (MIC) (E. coli K-12; seeding 10^6 cells/ml) [µg/mL] | minimum inhibitory concentration (MIC) (C. fleundii NIH 10018-68; C. fleundii NIH 10018-68, seeding 10^6 cells/ml, agar plate dilution) [µg/mL] | minimum inhibitory concentration (MIC) (K. pneumoniae NCTC 9632; seeding 10^6 cells/ml) [µg/mL] | minimum inhibitory concentration (MIC) (S. typhi T-287) [µg/mL] | minimum inhibitory concentration (MIC) (P. vulgaris OX-19; seeding 10^6 cells/ml) [µg/mL] | minimum inhibitory concentration (MIC) (P. rettgeri NIH 96; seeding 10^6 cells/ml) [µg/mL] | minimum inhibitory concentration (MIC) (P. aeruginosa Nc-5; seeding 10^6 cells/ml) [µg/mL] | MIC (E. coli NIH) [µg/mL] | MIC (E. coli K-12) [µg/mL] | MIC (C. fleundii NIH 10018-68) [µg/mL] | MIC (K. pneumoniae NCTC 9632) [µg/mL] | MIC (S. typhi T-287) [µg/mL] | MIC (S. flexneri 2a EW-10) [µg/mL] | MIC (P. vulgaris OX-19) [µg/mL] | MIC (P. rettgeri NIH 96) [µg/mL] | MIC (P. aeruginosa Nc-5) [µg/mL]
Gentamicin [reference compound] | 0.78 | 0.78 | 0.39 | 0.78 | 0.78 | 3.13 | < 0.20 | 3.13 |  |  |  |  |  |  |  |  | 
CO/N=C(\C(=O)N[C@@H]1C(=O)N2C(C(=O)[O-])=C(C[n+]3ccc([Si](C)(C)C)cc3)CS[C@H]12)c1csc(N)n1 [Example 2, [6R-[6α,7β(Z)]]-1-[7-[[(2-Amino-4-thiazolyl)(methoxyimino)acetyl]amino]-2-carboxy-8-oxo-5-thia-1-azabicyclo[4,2,0]oct-2-en-3-yl]methyl-4-trimethylsilylpyridinium hydroxide, inner salt] |  |  |  |  |  |  |  |  | < 0.2 | 0.78 | < 0.2 | 0.78 | 0.39 | 0.39 | < 0.2 | < 0.2 | 6.25
CO/N=C(\C(=O)N[C@@H]1C(=O)N2C(C(=O)[O-])=C(C[n+]3cccc([Si](C)(C)C)c3)CS[C@H]12)c1csc(N)n1 [Example 1, [6R-[6α,7β(Z)]]-1-[7-[[(2-Amino-4-thiazolyl)(methoxyimino)acetyl]amino]-2-carboxy-8-oxo-5-thia-1-azabicyclo[4,2,0]oct-2-en-3-yl]methyl-3-trimethylsilylpyridinium hydroxide, inner salt] |  |  |  |  |  |  |  |  | < 0.2 | 0.39 | < 0.2 | 0.39 | < 0.2 | < 0.2 | < 0.2 | < 0.2 | 1.56
CO/N=C(\C(=O)N[C@@H]1C(=O)N2C(C(=O)[O-])=C(C[n+]3ccc(OC)c([Si](C)(C)C)c3)CS[C@H]12)c1csc(N)n1 [Example 3, [6R-[6α,7β(Z)]]-1-[7-[[(2-Amino-4-thiazolyl)(methoxyimino)acetyl]amino]-2-carboxy-8-oxo-5-thia-1-azabicyclo[4,2,0]oct-2-en-3-yl]methyl-4-methoxy-3-trimethylsilylpyridinium hydroxide, inner salt] |  |  |  |  |  |  |  |  | 0.78 | 0.78 | 0.78 | 0.78 | 0.39 | 0.39 | < 0.2 | < 0.2 | 6.25
